Measurements from US12252481B2, “Anti-viral compounds” (Aligos Therapeutics, Inc., priority 2021, dated 2025).
Read-outs that look alike come from different tables or passages of the source.

What was measured:
human cathepsin L = molecular target: T1, human cathepsin L (Homo sapiens, UniProt P07711); test: Cathepsin L assay (Z-FR-AMC fluorescence); assay type: biochemical; conditions: 10 pM human cathepsin L, 30 mins preincubation, Z-FR-AMC 2 μM
T1 construct: purchased R&D Systems
Procedure: For the cathepsin L assay, 10 pM of human cathepsin L (R&D Systems; Minneapolis, MN) was preincubated for 30 mins with test compounds. Reactions were initiated by the addition of a peptide substrate Z—FR-AMC (final concentration 2 μM, Anaspec; Fremont, CA). Fluorescence was measured at 2-minute intervals for 30 mins using a 355/460 excitation/emission filter module on an Envision plate reader (Perkin Elmer; Waltham, MA). The IC50 values were calculated for each assay by fitting the curves using a four-parameter equation in GraphPad Prism.

SARS-Cov-2 3CLpro = molecular target: T2, SARS-Cov-2 3CLpro (Severe acute respiratory syndrome coronavirus 2, UniProt P0DTD1); test: biochemical; conditions: 3CLpro, 30 mins preincubation, SAMDI-MS; read-out: SARS-Cov-2 IC50 (class)
T2 construct: 3CLpro and HRV3C was added using a Multidrop Combi

[1] = test system: human beta-coronavirus OC43; test: OC43 coronavirus antiviral assay in HeLa cells (cytopathic effect, cell-titer-glo); assay type: cell-based; conditions: Betacoronavirus 1, OC43, HeLa, 144 h, 6 days at 33° C.
HRV3C = molecular target: T3, HRV3C (Human rhinovirus 14, UniProt P03303); test: biochemical; parameters: species or system HRV; conditions: HRV3C, 30 mins preincubation, SAMDI-MS; read-out: HRV IC50 (bound)
T3 construct: 3CLpro and HRV3C was added using a Multidrop Combi

[2] = test system: B.1.1.7 lineage SARS-CoV-2; test: microbe, parasite or virus in culture; assay type: cell-based; conditions: Severe acute respiratory syndrome coronavirus 2, 96 h, read-out: A549-dual_ACE2_TMPRSS2 (EC50)

T1 sequence (P07711 114-333): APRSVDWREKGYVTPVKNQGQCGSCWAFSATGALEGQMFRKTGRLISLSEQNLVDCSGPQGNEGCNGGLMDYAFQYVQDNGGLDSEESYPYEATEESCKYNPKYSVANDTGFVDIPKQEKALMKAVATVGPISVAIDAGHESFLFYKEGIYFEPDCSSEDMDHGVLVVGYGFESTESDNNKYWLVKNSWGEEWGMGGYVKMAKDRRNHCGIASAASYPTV
T3 sequence (P03303 1538-1719): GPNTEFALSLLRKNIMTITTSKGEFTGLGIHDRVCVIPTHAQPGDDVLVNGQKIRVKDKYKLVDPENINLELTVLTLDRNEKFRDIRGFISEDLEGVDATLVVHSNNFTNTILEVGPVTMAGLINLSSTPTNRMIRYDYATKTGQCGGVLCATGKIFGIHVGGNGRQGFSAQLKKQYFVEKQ

Row | Structure (SMILES) | IC50 (human cathepsin L) | IC50 (SARS-Cov-2 3CLpro) | EC50 ([1]; read-out: EC50 (bound)) | IC50 (HRV3C) | EC50 [2] | EC50 ([1]; read-out: EC50 (class)) | EC50 ([2]; […], numeric bounds given instead of class symbols)
1 | CC(C)(C)[C@H](NC(=O)C(F)(F)F)C(=O)N1C[C@@H]2[C@@H]([C@@H]3C=C[C@H]2CC3)[C@@H]1C(=O)N[C@H](C#N)C[C@@H]1CCNC1=O (relative stereo) [Compound 59a, (1R*,3aS*,4R*,7S*,7aR*)-N-((S)-1-cyano-2-((S)-2-oxopyrrolidin-3-yl)ethyl)-2-((S)-3,3-dimethyl-2-(2,2,2-trifluoroacetamido)butanoyl)-2,3,3a,4,7,7a-hexahydro-1H-4,7-ethanoisoindole-1-carboxamide] | ≥ 10000 nM | 200 to 2000 nM | > 10000 nM | > 10000 nM | 1000 to 10000 nM |  | 
2 | CC(C)(C)[C@H](NC(=O)C1(F)CC1)C(=O)N1C[C@@H]2[C@@H]3CC[C@@H](C3)[C@@H]2[C@H]1C(=O)N[C@H](C#N)C[C@@H]1CCNC1=O [Compound 64, (1S,2S,3S,6R,7R)—N-[(1S)-1-cyano-2-[(3S)-2-oxopyrrolidin-3-yl]ethyl]-4-[(2S)-2-[(1-fluorocyclopropyl)formamido]-3,3-dimethylbutanoyl]-4-azatricyclo[5.2.1.0^{2,6}]decane-3-carboxamide] | ≥ 10000 nM | < 20 nM |  | > 10000 nM | < 100 nM | < 100 nM | 
3 | CC(C)(C)[C@H](NC(=O)C(F)(F)F)C(=O)N1C[C@H]2[C@@H]([C@H]1C(=O)N[C@H](C#N)C[C@@H]1Oc3ccccc3NC1=O)[C@H]1C=C[C@@H]2C1 [Compound 52, (1S,3aR,4S,7R,7aS)-N-((S)-1-cyano-2-((S)-3-oxo-3,4-dihydro-2H-benzo[b][1,4]oxazin-2-yl)ethyl)-2-((S)-3,3-dimethyl-2-(2,2,2-trifluoroacetamido)butanoyl)-2,3,3a,4,7,7a-hexahydro-1H-4,7-methanoisoindole-1-carboxamide] | ≥ 10000 nM | < 20 nM |  | > 10000 nM | 100 to 1000 nM | 100 to 1000 nM | 
4 | CC(C)(C)[C@H](NC(=O)C(F)(F)F)C(=O)N1C[C@H]2[C@H]3CC[C@H](CC3)[C@H]2[C@@H]1C(=O)N[C@H](C#N)C[C@@H]1CCNC1=O [Compound 71a] | ≥ 10000 nM | 2000 to 20000 nM | > 10000 nM | > 10000 nM |  |  | > 10000 nM
5 | CC(C)(C)[C@H](NC(=O)C(F)(F)F)C(=O)N1C[C@H]2[C@@H]([C@H]1C(=O)N[C@H](C#N)CC1CC3(CC(F)(F)C3)NC1=O)[C@H]1C=C[C@@H]2C1 (mixture of isomers) [Example 83, (1R,2S,3S,6R,7S)—N-[(1S)-1-cyano-2-{2,2-difluoro-6-oxo-5-azaspiro[3.4]octan-7-yl}ethyl]-4-[(2S)-3,3-dimethyl-2-(2,2,2-trifluoroacetamido)butanoyl]-4-azatricyclo[5.2.1.0^{2,6}]dec-8-ene-3-carboxamide] | ≥ 10000 nM | < 20 nM |  | > 10000 nM | < 100 nM | < 100 nM | 
6 | CC(F)(F)[C@H](NC(=O)C(F)(F)F)C(=O)N1C[C@H]2[C@@H]([C@H]1C(=O)N[C@H](C#N)C[C@@H]1CCNC1=O)[C@H]1C=C[C@@H]2C1 [Compound 133] | ≥ 10000 nM | < 20 nM |  | > 500 nM | 100 to 1000 nM | < 100 nM | 
7 | CC(C)(F)C(=O)N[C@H](C(=O)N1C[C@H]2[C@@H]([C@H]1C(=O)N[C@H](C#N)C[C@@H]1CCNC1=O)[C@H]1C=C[C@@H]2C1)C(C)(C)C [Compound 74] | ≥ 10000 nM | < 20 nM |  | > 10000 nM | < 100 nM | < 100 nM | 
8 | C=CC1([C@H](NC(=O)C(F)(F)F)C(=O)N2C[C@H]3[C@@H]([C@H]2C(=O)N[C@H](C#N)C[C@@H]2CCNC2=O)[C@H]2C=C[C@@H]3C2)CCC1 [Compound 68, (1S,3aR,4S,7R,7aS)-N-((S)-1-cyano-2-((S)-2-oxopyrrolidin-3-yl)ethyl)-2-((S)-2-(2,2,2-trifluoroacetamido)-2-(1-vinylcyclobutyl)acetyl)-2,3,3a,4,7,7a-hexahydro-1H-4,7-methanoisoindole-1-carboxamide] | ≥ 10000 nM | < 20 nM |  | > 10000 nM | < 100 nM | < 100 nM | 
9 | CO[C@](C)(C(=O)N[C@H](C(=O)N1C[C@H]2[C@@H]([C@H]1C(=O)N[C@H](C#N)C[C@@H]1CCNC1=O)[C@H]1C=C[C@@H]2C1)C(C)(C)C)C(F)(F)F [Compound 78] | ≥ 10000 nM | 20 to 200 nM |  | > 10000 nM | 100 to 1000 nM | 1000 to 10000 nM | 
10 | CC(F)(F)C(=O)N[C@H](C(=O)N1C[C@H]2[C@@H]([C@H]1C(=O)N[C@H](C#N)C[C@@H]1CCNC1=O)[C@H]1C=C[C@@H]2C1)C(C)(C)C [Compound 73] | ≥ 10000 nM | < 20 nM |  | > 10000 nM | < 100 nM | < 100 nM | 
11 | CC(C)(C)[C@H](NC(=O)C(F)(Cl)Cl)C(=O)N1C[C@@H]2[C@@H]3CC[C@@H](C3)[C@@H]2[C@H]1C(=O)N[C@H](C#N)C[C@@H]1CCNC1=O [Compound 67, (1S,2S,3S,6R,7R)—N-[(1S)-1-cyano-2-[(3S)-2-oxopyrrolidin-3-yl]ethyl]-4-[(2S)-2-(2,2-dichloro-2-fluoroacetamido)-3,3-dimethylbutanoyl]-4-azatricyclo[5.2.1.0^{2,6}]decane-3-carboxamide] | ≥ 10000 nM | < 20 nM |  | > 10000 nM | < 100 nM | < 100 nM | 
12 | CC(C)(C)[C@H](NC(=O)C(F)(F)C(F)(F)F)C(=O)N1C[C@H]2[C@@H]([C@H]1C(=O)N[C@H](C#N)C[C@@H]1CCNC1=O)[C@H]1C=C[C@@H]2C1(F)F [Compound 129, (1R,2R,3S,6S,7S)—N-[(1S)-1-cyano-2-[(3S)-2-oxopyrrolidin-3-yl]ethyl]-4-[(2S)-3,3-dimethyl-2-(2,2,3,3,3-pentafluoropropanamido)butanoyl]-10,10-difluoro-4-azatricyclo[5.2.1.0^{2,6}]dec-8-ene-3-carboxamide] | ≥ 10000 nM | < 20 nM |  | > 500 nM | < 100 nM | < 100 nM | 
13 | CC(C)(C)[C@H](NC(=O)C12CC(C1)C2)C(=O)N1C[C@H]2[C@@H]([C@H]1C(=O)N[C@H](C#N)C[C@@H]1CCNC1=O)[C@H]1C=C[C@@H]2C1 [Compound 66, (1S,3aR,4S,7R,7aS)-2-((S)-2-(bicyclo[1.1.1]pentane-1-carboxamido)-3,3-dimethylbutanoyl)-N-((S)-1-cyano-2-((S)-2-oxopyrrolidin-3-yl)ethyl)-2,3,3a,4,7,7a-hexahydro-1H-4,7-methanoisoindole-1-carboxamide] | ≥ 10000 nM | < 20 nM |  | > 10000 nM | 100 to 1000 nM | 100 to 1000 nM | 
14 | COCC(C)(C)[C@H](NC(=O)C(F)(F)C(F)(F)F)C(=O)N1C[C@H]2[C@@H]([C@H]1C(=O)N[C@H](C#N)C[C@@H]1CCNC1=O)[C@H]1C=C[C@@H]2C1 [Compound 100, (1S,3aR,4S,7R,7aS)-N-((S)-1-cyano-2-((S)-2-oxopyrrolidin-3-yl)ethyl)-2-((S)-4-methoxy-3,3-dimethyl-2-(2,2,3,3,3-pentafluoropropanamido)butanoyl)-2,3,3a,4,7,7a-hexahydro-1H-4,7-methanoisoindole-1-carboxamide] | ≥ 10000 nM | < 20 nM |  | > 500 nM | < 100 nM | < 100 nM | 
15 | CC(C)(C)[C@H](NC(=O)C1(F)CCC1)C(=O)N1C[C@H]2[C@@H]([C@H]1C(=O)N[C@H](C#N)C[C@@H]1CCNC1=O)[C@H]1C=C[C@@H]2C1 [Compound 65, (1S,3aR,4S,7R,7aS)-N-((S)-1-cyano-2-((S)-2-oxopyrrolidin-3-yl)ethyl)-2-((S)-2-(1-fluorocyclobutane-1-carboxamido)-3,3-dimethylbutanoyl)-2,3,3a,4,7,7a-hexahydro-1H-4,7-methanoisoindole-1-carboxamide] | ≥ 10000 nM | < 20 nM |  | > 10000 nM | < 100 nM | < 100 nM | 
16 | CC(C)(C)[C@H](NC(=O)C(F)(F)F)C(=O)N1C[C@@H]2[C@H]3CC[C@H](CC3)[C@@H]2[C@H]1C(=O)N[C@H](C#N)C[C@@H]1CCNC1=O (mixture of isomers) [Compound 71] | ≥ 10000 nM | < 20 nM |  | > 10000 nM | < 100 nM | 100 to 1000 nM | 
17 | CC(C)(C)[C@H](NC(=O)C(F)(F)F)C(=O)N1C[C@H]2[C@@H]([C@H]1C(=O)N[C@H](C#N)C[C@@H]1OCCNC1=O)[C@H]1C=C[C@@H]2C1 [Compound 114, (1S,3aR,4S,7R,7aS)-N-((S)-1-cyano-2-((S)-3-oxomorpholin-2-yl)ethyl)-2-((S)-3,3-dimethyl-2-(2,2,2-trifluoroacetamido)butanoyl)-2,3,3a,4,7,7a-hexahydro-1H-4,7-methanoisoindole-1-carboxamide] | ≥ 10000 nM | < 20 nM |  | > 500 nM | < 100 nM | < 100 nM | 
